From US12398108B2, “Compounds, compositions, and methods for treating diseases” (Drexel University, priority 2017, dated 2025)

Experiments:
[1] = test system: Human Androgen Receptor; experiment: Indigo Biosciences Human Androgen Receptor Reporter Assay System; assay type: cell-based
Experimental: The compound's activity was also measured for its ability to inhibit androgen receptor reporter activity. The assay that was used was Indigo Biosciences Human Androgen Receptor Reporter Assay System. […] Based upon these activities, the compounds are expected to have anti-tumor effects.

[2] = target: Sigma1 receptor (Homo sapiens, UniProt Q99720); experiment: binding to Sigma1 receptor
Sequence of Sigma1 receptor (Q99720 whole entry, species assumed): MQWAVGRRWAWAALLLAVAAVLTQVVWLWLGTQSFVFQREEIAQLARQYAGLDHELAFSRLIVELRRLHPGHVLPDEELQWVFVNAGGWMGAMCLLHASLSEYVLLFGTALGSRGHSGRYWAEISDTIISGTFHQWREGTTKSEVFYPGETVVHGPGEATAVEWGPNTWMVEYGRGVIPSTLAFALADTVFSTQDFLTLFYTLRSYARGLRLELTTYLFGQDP

[3] = test system: breast cancer; experiment: administration to a subject who has breast cancer; assay type: in vivo
Experimental: 1-(2,2-Dimethyl-3-(4-(trifluoromethyl)phenoxy)propyl)-3-(pyrimidin-5-yl)guanidine is administered to a subject who has breast cancer. The tumor growth is inhibited and the tumor size is reduced.

[4] = administration to a subject in pain; assay type: in vivo
Experimental: 1-(2,2-Dimethyl-3-(4-(trifluoromethyl)phenoxy)propyl)-3-(pyrimidin-5-yl)guanidine is administered to a subject in pain. The subject's pain is alleviated.

- binding to Sigma1 receptor [2]: nanomolar range
SMILES: CC(C)(CNC(=N)Nc1cncnc1)COc1ccc(C(F)(F)F)cc1 [1-(2,2-Dimethyl-3-(4-(trifluoromethyl)phenoxy)propyl)-3-(pyrimidin-5-yl)guanidine]
- ability to inhibit androgen receptor reporter activity [1]: active
- tumor growth [3]: inhibited
- tumor size [3]: reduced
- subject's pain [4]: alleviated
